# Measurements taken from PMC8864676 (Organic & biomolecular chemistry, 2022).
# Values joined by “and” are separate entries in the source; they are usually repeats but may differ in a detail not shown here. Identical values can stand only once.
# Experiments:
# [1] = biological target: T1, PutA86–630 (PRODH domain of proline utilization A) (Escherichia coli, UniProt P09546); assay type: biochemical; conditions: for kcat: kcat of PutA86–630 from the global fit of the data set with this inhibitor; for ΔΔG, loss of binding energy relative to 1 / fold change in Ki relative to 1: chemical double mutant cycle; for fold change in Ki relative to 1: from Ki values
# [2] = biological target: T1, PutA86–630 (PRODH domain of proline utilization A); assay: Initial single-point screening of compounds for inhibition of PRODH activity; assay type: biochemical; conditions: for inhibition at 5000 µM: read-out: inhibition in the single-point assay; for inhibition in the single-point assay (in words): 13, 15, 16 compared with 1
# PRODH = conditions: cited from earlier work
# [3] = 5 mM inhibitor, 200 mM L-proline
# T1 sequence (P09546 86-630): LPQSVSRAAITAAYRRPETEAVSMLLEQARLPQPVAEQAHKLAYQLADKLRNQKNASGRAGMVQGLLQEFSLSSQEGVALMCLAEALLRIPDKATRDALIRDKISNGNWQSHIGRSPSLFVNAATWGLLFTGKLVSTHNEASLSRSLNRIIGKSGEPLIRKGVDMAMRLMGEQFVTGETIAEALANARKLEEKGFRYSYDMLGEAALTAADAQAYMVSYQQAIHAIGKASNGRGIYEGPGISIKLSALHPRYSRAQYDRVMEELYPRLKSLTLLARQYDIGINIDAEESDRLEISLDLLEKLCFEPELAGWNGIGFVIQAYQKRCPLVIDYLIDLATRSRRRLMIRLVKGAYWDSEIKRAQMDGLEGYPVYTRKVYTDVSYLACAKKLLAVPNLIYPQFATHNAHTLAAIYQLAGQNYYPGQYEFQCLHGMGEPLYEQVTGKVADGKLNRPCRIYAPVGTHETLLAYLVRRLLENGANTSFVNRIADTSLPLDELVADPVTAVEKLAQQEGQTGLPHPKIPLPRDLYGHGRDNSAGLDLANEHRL
compound,measurement,setting,value
"O=C(O)C1CCC1 [Compound 3, cyclobutanecarboxylic acid]","ΔΔG, improvement of affinity relative to 16","[1]; cyclopentane of 16 decreased to cyclobutane, calculated from Ki values",0.71 kcal/mol and 0.7 kcal/mol
same,kcat,[1],1.47 ± 0.05 s⁻¹
same,"ΔΔG, loss of binding energy relative to 18","[1]; removing the O heteroatom from 18, calculated from Ki values",about 0.2 kcal/mol
same,reduction of enzyme activity relative to the no-inhibitor control,[2]; [3],over 2 fold
same,inhibition at 5000 µM,[2],> 50%
"O=C(O)C1CC1 [Compound 4, cyclopropanecarboxylic acid]",kcat,[1],1.20 ± 0.03 s⁻¹
same,"ΔΔG, decrease of affinity relative to 3","[1]; ring size decreased from cyclobutane to cyclopropane, calculated from Ki values",0.3 kcal/mol
"O=C1CC(C(=O)O)C1 [Compound 10, 3-oxocyclobutanecarboxylic acid]",inhibition in the single-point assay (in words),[2]; [3],very little inhibition
"NC(=O)[C@@H]1CCCO1 [Compound 13, (S)-(−)-tetrahydrofuran-2-carboxamide]",inhibition in the single-point assay (in words),[2]; [3],decreases inhibition
"O=C(O)C1CCCCO1 (centres unmarked) [Compound 15, tetrahydropyran-2-carboxylic acid]",inhibition in the single-point assay (in words),[2]; [3],severely decreases inhibition
"O=C(O)C1CCCC1 [Compound 16, cyclopentanecarboxylic acid]","ΔΔG, loss of binding energy relative to 1",[1]; calculated from Ki values,~2 kcal/mol
same,fold change in Ki relative to 1,[1],20 fold
same,kcat,[1],1.35 ± 0.04 s⁻¹
same,inhibition in the single-point assay (in words),[2]; [3],severely decreases inhibition
"CCC(=O)C(=O)O [Compound 17, 2-oxobutyric acid]",kcat,[1],1.14 ± 0.02 s⁻¹
same,inhibition at 5000 µM,[2],> 50%
"O=C(O)[C@@H]1CCO1 [Compound 18, (2S)-oxetane-2-carboxylic acid]","ΔΔG, loss of binding energy relative to 1",[1]; calculated from Ki values,0.95 kcal/mol
same,fold change in Ki relative to 1,[1],5 fold
same,kcat,[1],1.42 ± 0.04 s⁻¹
same,reduction of enzyme activity relative to the no-inhibitor control,[2]; [3],over 2 fold
same,inhibition at 5000 µM,[2],> 50%
C[C@H](O)C(=O)O [L-lactic acid],Ki,PRODH,~1 mM
CC(=O)O [acetic acid],Ki,PRODH,~30 mM
"(S)-(−)-tetrahydro-2-furoic acid [Compound 1, reference compound]",Ki,PRODH,0.2 to 1 mM
same,kcat,[1],1.16 ± 0.03 s⁻¹
same,enzyme activity relative to the no-inhibitor control,[2]; [3],12%
